Laboratory results published in patent US11046720B2, “Dimethylphosphine oxide compound” (GUIZHOU INOCHINI TECHNOLOGY CO., LTD, priority 2018, dated 2021).
Where two headings read alike, the source gives them in different places.

Columns and labels:
[1] = target: T1, LRRK2 full-length human recombinant protein (Homo sapiens, UniProt Q5S007); assay: In vitro evaluation of LRRK2 kinase inhibitory activity (HTRF / TR-FRET, LRRKtide); assay type: biochemical; details: 57 μM ATP, 0.4 uM Fluorescein-ERM (LRRKtide) peptide
T1 construct: express LRRK2 full-length human recombinant protein in Sf9 cells of insects; GST; made in house; host or cells: Sf9 insect cells (baculovirus)
Protocol: Experimental purpose: to detect transfer of energy signals (ratio of fluorescence signals: […]) after the phosphate group of phosphorylated Fluorescein-ERM (LRRKtide) peptide binds with LanthaScreen® Tb-pERM (pLRRKtide) antibody using homogeneous time-resolved fluorescence. Calculate IC50 for LRRK2 inhibition of the compound to be assayed.
1. Reaction solution: 10 mM 4-(2-hydroxyethyl) piperazine-1-ethanesulfonic acid (pH 7.5); 2 mM magnesium chloride; 0.5 mM glycol-bis-(2-aminoethylether)-N; 0.002% primary alcohol ethoxylate, 1 mM dithiothreitol and 1% DMSO;
2. Assay solution: TR-FRET Dilution Buffer;
3. LRRK2 human recombinant protein: use GST tag and baculovirus to express LRRK2 full-length human recombinant protein in Sf9 cells of insects;
4. Substrate: 0.4 uM Fluorescein-ERM (LRRKtide) peptide; 57 uM ATR
Resonance energy transfer of Fluorescein-ERM (LRRKtide) peptide and LanthaScreen® Tb-pERM (pLRRKtide) antibody between […].
1. Add DMSO solution of the compound to be assayed through the Echo550 non-contact nano-liter acoustic droplet ejection system;
2. Prepare mixed solution of enzyme and polypeptide with freshly prepared reaction solution. Add the mixed solution to the reaction cavity and warm it up at room temperature for 20 minutes in advance;
3. Add 57 μM ATP to initiate reaction, which lasts for 90 minutes at room temperature;
4. Add fluorescein-ERM (LRRKtide) peptide, LanthaScreen® Tb-pERM (pLRRKtide) antibody and 10 mM ethylene diamine tetraacetic acid to the assay system. The reaction lasts for 60 minutes at room temperature. Detect yellow light signals with Em/Ex 520/485.
5. Measure enzyme activity inhibition relative to DMSO blank control group according to the signal ratio, and calculate IC50 by fitting curves with the software XLfit5.

[2] = target: T2, LRRK2 (pSer935) (Homo sapiens, UniProt Q5S007); assay: In vitro evaluation of inhibitory activity for LRRK2 cell (pSer935), 293T cells transfected with pcmv-flag-lrrk2, MSD; assay type: cell-based
T2 construct: expressed in transfected cells; host or cells: 293T cells
Protocol: Take 293T cells out of liquid nitrogen and put them in water at 37° C. After ice has fully thawed, transfer the cells to 5 mL warm culture medium. Discard the supernatant through centrifugation, and culture the suspended cells in the culture medium as new cells.
Culture the 293T cells in the culture medium for two to three days.
Plant 1.4×10^6/293T cells on a culture plate. After two days of culturing, cells will multiply to 5×10^6, so planting cells on N+1 plates is enough for performing experiments on N 96-well plates.
1) Add 5 μl (0.5 μg/μl) pcmv-flag-Irrk2 to 145 μl DMEM culture medium, and mix them evenly with a straw;
6) Incubate the culture plate inside a humidified incubator with 5% carbon dioxide for 20 to 24 hours at 37° C.
3. (Day 3) Plant the 293T Cells on the 96-Well Plate;
3) Transfer 50 μl inhibitor containing culture medium to the cell culture plate;
4) Incubate the culture plate inside a humidified incubator with 5% carbon dioxide for 20 to 24 hours at 37° C.;
5) Extract 300 μl inhibitor containing culture medium with a dropper. Take 200 μl inhibitor containing culture medium and add 100 μl decomposer into the culture medium. After the plate has been sealed, it shall be shaken for 30 minutes at 4° C.
1) Add 2 μg/25 μl labeled antibody to the MSD plate to incubate for 2 hours; (50 μl 3.9 μg/μl Flag antibody+2.5 ml fetal bovine serum per plate). Maintain centrifugation for 10 s (1,000 rpm);
5) Transfer 12.5 μl lysis buffer and 12.5 μl cell lysis buffer to the MSD plate to incubate for 1 hour at room temperature;
7) Dilute ps935 antibody at 1:200, and add 25 μl antibody to incubate for 1 hour;
9) Dilute goat anti-rabbit antibody at 1:500, and add 25 μl antibody to the incubation plate to incubate for 1 hour;
13) After incubation for about 3 minutes, read data over 15 minutes.

[3] = Pharmacokinetic evaluation in C57BL/6 mice, brain tissues and plasma; assay type: in vivo; details: oral, 5 mg/kg; for Kp / AUC(0-t) / Tmax / Cmax / half-life: male, C57BL/6, mouse; for Kp: brain/plasma, read-out: drug concentration ratio between brain tissues and plasma (B/P)
Protocol: Experimental purpose: to study pharmacokinetics of the compounds in vivo in C57BL/6 mice—drug concentration ratio between brain tissues and plasma
Experimental materials: C57BL/6 mice (male, 8 weeks old, weight: 25 g-30 g)
Assay Pharmacokinetic Features of Glires after they are Orally Administered the Compounds According to Standard Schemes.
In the experiment, the candidate compounds are prepared into 1 mg/mL mixed suspension, and mice are orally administered once. The menstruum for oral administration is 10% dimethyl sulfoxide (DMSO)/10% polysorbate/20% PEG-400 aqueous solution. This project uses male C57BL/6 mice, which are orally administered drugs at a dose of 5 mg/kg. Collect the whole brain 0.5, 1, 2 and 4 hours after the administration. Homogenize tissue samples with 15 mM [[…] (pH=7.4) buffer and methanol (volume ratio: 2:1)] at a ratio of 1:5 (w:v). Equally divide the homogenate into 2 samples: one for assay and the other for standby use. Besides, collect plasma 0.5, 1, 2 and 4 hours after administration. Centrifugate with 3,000 g relative centrifugal force within half an hour after collection at about 4° C. for 15 minutes to separate supernatant and obtain plasma samples. Store the plasma samples in polypropylene tubes; rapidly freeze them on dry ice and keep them at −80° C. till LC/MS/MS assay. Add internal standard precipitated protein of acetonitrile solution and fully mix them to extract supernatant samples via centrifugation. Quantitatively analyze plasma concentration by LC-MS/MS assay and calculate pharmacokinetic parameters such as maximal concentration (Cmax), half-life (T1/2), maximal time (Tmax), drug concentration in different tissues after administration (AUC0-last), and drug concentration ratio between brain tissues and plasma (B/P).

[4] = brain tissues, read-out: AUC0-last Brain Tissues
[5] = brain tissues, read-out: Tmax Brain Tissues
[6] = plasma, read-out: AUC0-last Plasma
[7] = plasma, read-out: T1/2 Plasma (converted)
[8] = brain tissues, read-out: T1/2 Brain Tissues (converted)

T1 sequence (Q5S007 whole entry): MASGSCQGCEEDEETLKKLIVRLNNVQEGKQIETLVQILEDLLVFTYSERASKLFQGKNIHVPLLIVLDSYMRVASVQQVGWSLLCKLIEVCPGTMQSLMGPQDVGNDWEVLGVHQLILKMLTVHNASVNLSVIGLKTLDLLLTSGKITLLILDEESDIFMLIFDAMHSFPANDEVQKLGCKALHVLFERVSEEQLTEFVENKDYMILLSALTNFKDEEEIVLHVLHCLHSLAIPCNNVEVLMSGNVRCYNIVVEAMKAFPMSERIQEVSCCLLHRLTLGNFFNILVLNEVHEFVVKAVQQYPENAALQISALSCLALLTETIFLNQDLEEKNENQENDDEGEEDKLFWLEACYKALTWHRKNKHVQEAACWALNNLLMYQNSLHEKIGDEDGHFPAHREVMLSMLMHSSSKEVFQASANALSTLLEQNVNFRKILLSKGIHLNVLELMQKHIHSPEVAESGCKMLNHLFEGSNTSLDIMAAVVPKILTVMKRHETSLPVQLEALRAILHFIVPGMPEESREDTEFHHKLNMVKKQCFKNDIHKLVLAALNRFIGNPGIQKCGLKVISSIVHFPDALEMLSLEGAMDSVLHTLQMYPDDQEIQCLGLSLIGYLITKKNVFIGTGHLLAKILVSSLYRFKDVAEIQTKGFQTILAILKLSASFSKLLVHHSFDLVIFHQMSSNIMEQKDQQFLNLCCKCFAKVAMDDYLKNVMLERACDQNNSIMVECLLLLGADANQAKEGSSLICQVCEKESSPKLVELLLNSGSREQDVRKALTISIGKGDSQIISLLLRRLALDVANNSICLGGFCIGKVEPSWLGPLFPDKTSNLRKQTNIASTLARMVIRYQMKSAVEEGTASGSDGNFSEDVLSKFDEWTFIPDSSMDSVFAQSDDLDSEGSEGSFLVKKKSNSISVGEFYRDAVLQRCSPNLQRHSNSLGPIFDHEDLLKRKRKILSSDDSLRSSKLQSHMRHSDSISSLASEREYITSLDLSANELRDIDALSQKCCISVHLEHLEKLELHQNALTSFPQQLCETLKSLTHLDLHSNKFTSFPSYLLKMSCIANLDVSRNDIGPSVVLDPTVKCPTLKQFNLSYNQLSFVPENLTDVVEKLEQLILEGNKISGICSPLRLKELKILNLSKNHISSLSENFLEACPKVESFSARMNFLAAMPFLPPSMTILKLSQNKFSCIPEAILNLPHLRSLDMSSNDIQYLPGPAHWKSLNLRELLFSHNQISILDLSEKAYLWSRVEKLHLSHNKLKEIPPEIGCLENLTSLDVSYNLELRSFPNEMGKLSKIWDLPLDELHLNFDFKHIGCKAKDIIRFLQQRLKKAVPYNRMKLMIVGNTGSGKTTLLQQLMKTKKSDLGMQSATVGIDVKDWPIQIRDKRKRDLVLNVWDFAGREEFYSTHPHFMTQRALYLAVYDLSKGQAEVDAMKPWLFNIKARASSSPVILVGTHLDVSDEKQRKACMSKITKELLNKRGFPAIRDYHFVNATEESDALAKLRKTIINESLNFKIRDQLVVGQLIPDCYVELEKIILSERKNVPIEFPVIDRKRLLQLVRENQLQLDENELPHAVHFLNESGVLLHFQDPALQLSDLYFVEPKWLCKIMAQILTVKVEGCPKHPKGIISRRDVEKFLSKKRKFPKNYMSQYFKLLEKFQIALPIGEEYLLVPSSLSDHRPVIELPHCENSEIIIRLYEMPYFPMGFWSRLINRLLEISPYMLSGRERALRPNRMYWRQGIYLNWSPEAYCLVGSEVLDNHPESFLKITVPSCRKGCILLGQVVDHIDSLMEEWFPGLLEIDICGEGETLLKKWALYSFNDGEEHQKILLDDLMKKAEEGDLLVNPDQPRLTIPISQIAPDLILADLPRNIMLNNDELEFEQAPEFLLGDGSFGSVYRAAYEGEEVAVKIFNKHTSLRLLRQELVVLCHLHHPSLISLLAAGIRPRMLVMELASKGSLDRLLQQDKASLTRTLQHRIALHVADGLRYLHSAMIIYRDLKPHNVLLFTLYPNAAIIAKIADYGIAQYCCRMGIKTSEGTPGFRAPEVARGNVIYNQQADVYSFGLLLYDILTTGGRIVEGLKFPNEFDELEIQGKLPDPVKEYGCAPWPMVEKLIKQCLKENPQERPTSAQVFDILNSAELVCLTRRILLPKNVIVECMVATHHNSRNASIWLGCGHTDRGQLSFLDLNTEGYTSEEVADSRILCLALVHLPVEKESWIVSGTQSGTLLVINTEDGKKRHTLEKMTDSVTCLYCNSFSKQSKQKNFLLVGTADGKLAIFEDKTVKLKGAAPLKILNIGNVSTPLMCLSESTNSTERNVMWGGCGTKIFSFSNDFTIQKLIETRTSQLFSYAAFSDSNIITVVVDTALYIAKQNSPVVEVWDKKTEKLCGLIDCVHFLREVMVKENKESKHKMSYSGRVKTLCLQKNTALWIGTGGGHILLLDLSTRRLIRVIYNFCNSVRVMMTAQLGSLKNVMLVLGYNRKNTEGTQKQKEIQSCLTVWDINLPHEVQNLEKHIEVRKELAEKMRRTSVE
T2 sequence (Q5S007 whole entry): as above

Row | SMILES | IC50 [1] [nM] | IC50 [2] [nM] | Kp [3] | AUC(0-t) [3, 4] [µM·h] | Tmax [3, 5] [min] | Cmax ([3]; plasma) [nM] | AUC(0-t) [3, 6] [µM·h] | half-life [3, 7] [min] | Tmax ([3]; plasma, read-out: Tmax Plasma) [min] | Cmax Brain Tissues ([3]; brain tissues) [nM] | half-life [3, 8] [min]
1 | COc1c(Nc2ncc(Cl)c(Nc3ccccc3P(C)(C)=O)n2)ccnc1N1CC2(COC2)C1 [Embodiment 22] | 2.6 | 44 |  |  |  |  |  |  |  |  | 
2 | COc1nc(N2CCC3(CCCO3)C2)ccc1Nc1ncc(Cl)c(Nc2ccccc2P(C)(C)=O)n1 (stereo not drawn) [Embodiment 5] | 8.2 | 4 |  |  |  |  |  |  |  |  | 
3 | COc1nc(N2CCC3(CCOC3)C2)ccc1Nc1ncc(Cl)c(Nc2ccccc2P(C)(C)=O)n1 (stereo not drawn) [Embodiment 1] | 21 |  |  |  |  |  |  |  |  |  | 
4 | COc1nc(N2CCC3(CCOCC3)CC2)ccc1Nc1ncc(Cl)c(Nc2ccccc2P(C)(C)=O)n1 [Embodiment 8] | 7.2 |  |  |  |  |  |  |  |  |  | 
5 | COc1nc(N2CC3(CCCCO3)C2)ccc1Nc1ncc(Cl)c(Nc2ccccc2P(C)(C)=O)n1 [Embodiment 7] | 8.5 | 10.9 |  |  |  |  |  |  |  |  | 
6 | COc1nc(N2CC3(CCOCC3)C2)ccc1Nc1ncc(Cl)c(Nc2ccccc2P(C)(C)=O)n1 [Embodiment 3] | 6.2 | 4.3 | 0.14 | 0.192 | 30 | 1180 | 1.39 | 35.4 | 30 | 217 | 
7 | COc1ncc(N2CC3(COC3)C2)cc1Nc1ncc(Cl)c(Nc2ccccc2P(C)(C)=O)n1 [Embodiment 18] | 4.6 | 86.1 |  |  |  |  |  |  |  |  | 
8 | COc1nc(N2CC3(COC3)C2)ccc1Nc1ncc(Cl)c(Nc2ccccc2P(C)(C)=O)n1 [Embodiment 12] | 1.6 | 3.7 | 0.14 | 0.476 | 30 | 3630 | 3.46 | 36 | 30 | 576 | 23.4
9 | COc1nc(N2CC3(CCCOC3)C2)ccc1Nc1ncc(Cl)c(Nc2ccccc2P(C)(C)=O)n1 [Embodiment 6] | 2.9 | 3.3 |  |  |  |  |  |  |  |  | 
10 | COc1nc(N2CC3(CCOC3)C2)ccc1Nc1ncc(Cl)c(Nc2ccccc2P(C)(C)=O)n1 [Embodiment 9] | 7.8 | 4.7 | 0.2 | 0.489 | 30 | 2600 | 2.48 | 33.6 | 30 | 604 | 21.6
11 | COc1c(Nc2ncc(Cl)c(Nc3ccccc3P(C)(C)=O)n2)ccnc1N1CC2(CCOC2)C1 [Embodiment 20] | 1.6 | 22 |  |  |  |  |  |  |  |  | 
12 | COc1nc(N2CCC3(CCCCO3)C2)ccc1Nc1ncc(Cl)c(Nc2ccccc2P(C)(C)=O)n1 (stereo not drawn) [Embodiment 4] | 34.2 |  |  |  |  |  |  |  |  |  | 
13 | COc1ncc(N2CCC3(CCOCC3)C2)cc1Nc1ncc(Cl)c(Nc2ccccc2P(C)(C)=O)n1 [Embodiment 17] | 27.7 |  |  |  |  |  |  |  |  |  | 
14 | COc1nc(N2CCC3(CCOCC3)C2)ccc1Nc1ncc(Cl)c(Nc2ccccc2P(C)(C)=O)n1 [Embodiment 10] | 21.6 |  |  |  |  |  |  |  |  |  | 
15 | COc1ncc(N2CC3(CCOC3)C2)cc1Nc1ncc(Cl)c(Nc2ccccc2P(C)(C)=O)n1 [Embodiment 16] | 10.6 |  |  |  |  |  |  |  |  |  | 
16 | COc1nc(N2CCC3(CCCOC3)C2)ccc1Nc1ncc(Cl)c(Nc2ccccc2P(C)(C)=O)n1 (stereo not drawn) [Embodiment 2] | 24.4 |  |  |  |  |  |  |  |  |  | 
17 | COc1nc(N2CC3(CCC3)C2)ccc1Nc1ncc(Cl)c(Nc2ccccc2P(C)(C)=O)n1 [Embodiment 14] | 15.2 |  | 0.96 | 4.2 | 60 | 1650 | 4.39 |  | 60 | 2042 | 
18 | COc1ncc(N2CC3(CCOCC3)C2)cc1Nc1ncc(Cl)c(Nc2ccccc2P(C)(C)=O)n1 [Embodiment 19] | 11.9 |  |  |  |  |  |  |  |  |  | 
19 | COc1nc(N2CC3(C2)CC3(F)F)ccc1Nc1ncc(Cl)c(Nc2ccccc2P(C)(C)=O)n1 [Embodiment 15] | 7.4 |  | 0.54 | 2.15 | 30 | 2150 | 4.02 | 45 | 30 | 1436 | 37.8
20 | COc1c(Nc2ncc(Cl)c(Nc3ccccc3P(C)(C)=O)n2)ccnc1N1CC2(CCC2)C1 [Embodiment 21] | 36.8 |  |  |  |  |  |  |  |  |  | 
21 | COc1nc(N2CC3(C2)CC(F)(F)C3)ccc1Nc1ncc(Cl)c(Nc2ccccc2P(C)(C)=O)n1 [Embodiment 13] | 9.1 |  | 0.52 | 1.16 | 30 | 1200 | 2.25 | 58.8 | 30 | 726 | 43.2
